How the values were obtained:
bone marrow cells = assay: In vivo chemoprotection: bone marrow cell count; conditions: for effect on bone marrow cell count, post-treatment: post-treatment per o.s. on day 1, 2, 3 and 4
Experimental: (§1) To examine the immunoprotective effect of MCT or other compounds, mice were pre-treated orally at day-3, -2 and -1 or treated intravenously at day 0 with the test compound. Mice were sacrificed at day +5 by cardiac puncture and cervical dislocation. Then, cell suspensions were prepared from thymus, spleen and bone marrow as follow.
(§2) Tissues were crushed in PBS buffer and contaminating erythrocytes were lysed in ACK buffer (155 mM NH4Cl, 12 mM NaHCO3, 0.1 mM EDTA, pH 7.3) for 5 minutes. Cells were then collected by centrifugation and washed three times in PBS and resuspended in tissue culture medium. Cells were counted on a hemacytometer.
(§3) Chemoprotection studies were performed as described in example 16 except that mice were (post)-treated with MCT, sodium caprylate, sodium caprate or capric acid per o.s. on day 1, 2, 3 and 4.

spleen cells = assay: In vivo chemoprotection: spleen cell count
Experimental: as §1, §2, §3

blood cell subsets = assay: Blood immunophenotyping (flow cytometry of cell surface markers); type: in vivo, C57BL/6 mice; conditions: CY (200 mg/kg) immunosuppressed mice; for Blood Immunophenotyping: LY5−TCR− cell subset (relative percentage): Table 14
Experimental: (§4) Female, 6- to 8-week old, C57BL/6 mice were pre-treated on day -3, -2 and -1 per o.s. or intravenously at day 0 with different concentrations of MCT. Immunophenotyping was also performed on immunosuppressed animals. […] Mice were sacrificed on day 5 by cardiac puncture. Blood and spleens were collected and cell suspensions prepared and erythrocytes lysed in ACK buffer (155 mM NH4Cl, 12 mM NaHCO3, 0.1 mM EDTA, pH 7.3) for 5 minutes. The cells were washed three times in PBS, pH 7.4 and resuspended in tissue culture medium. The cells were then incubated for 45 minutes on ice with fluorescein isothiocyanate (FITC) or phycoerythrin (PE) conjugated cell surface marker according to the manufacturer's (Gibco/BRL, Cedarlane, Boehringer Mannheim) recommendation. The cells were then washed in PBS, fixed with 1% paraformaldehyde and analyzed with a Coulter XL flow cytometer. Analysis of the cell subsets was undertaken by determination of standard cell surface markers which were as follows: TCR (T-cell receptor), CD4 (T helper), CD8 (T cytotoxic/suppressor), CD11b (macrophage), NK (NK cells) and Ly5 (B-cells). Bone marrow cells were obtained as described in example 15. Cells were stained by a 45 minutes incubation of FITC or PE conjugated cell surface marker according to the manufacturer's recommendation. The cells were then washed in PBS, fixed with 1% paraformaldehyde and analyzed with a Coulter XL flow cytometer. Analysis of the cell subsets was undertaken by determination of standard cell surface markers which were as follows: CD34 (hematopoietic progenitor cells), CD41 (platelets, megakaryocytes), CD13 (myelomonocytic stem cells, myelocytes, promonocytes) and CD38 (lymphoid stem cells, pro-B, pre-B).

spleen cell subsets = assay: Spleen immunophenotyping (flow cytometry of cell surface markers); type: in vivo, C57BL/6 mice; conditions: CY (200 mg/kg) immunosuppressed mice
Experimental: as §4

bone marrow cell subsets = assay: Bone marrow immunophenotyping (CD34, CD13, CD41, CD38); type: in vivo, C57BL/6 mice; conditions: for Bone marrow immunophenotyping: CY-treated mice, test substances compared to cyclophosphamide alone; for % Cells CD13+ (bone marrow) / % Cells CD34+ (bone marrow) / % Cells CD38+ (bone marrow) / % Cells CD41+ (bone marrow): Table 15, CY (200 mg/kg) immunosuppressed mice, CY + test substance (Cyclophosphamide line = CY alone)
Experimental: as §4
The effect of MCT, sodium caprylate, sodium caprate on bone marrow immunophenotyping was assessed by the protocol described in example 26.

[1] = CY-treated mice, protocol of example 16 (pre-treatment)
[2] = Table 5, CY-treated mice, CY + test compound (CY line = CY alone), protocol of example 16
[3] = Table 11, CY + capric acid 3.125 μMole post-treatment per o.s. day 1, 2, 3 and 4
[4] = Table 11, CY + capric acid 6.25 μMole post-treatment per o.s. day 1, 2, 3 and 4
[5] = Table 11, CY + capric acid 12.5 μMole post-treatment per o.s. day 1, 2, 3 and 4
[6] = Table 6, CY-treated mice, CY + test compound (CY line = CY alone), protocol of example 16
[7] = Table 9, CY-immunosuppressed mice, CY + test compound 6.25 μMole (CY line = CY alone)
[8] = Table 7, CY-treated mice, CY + test compound 6.25 μMole pre-treatment (CY line = CY alone)
[9] = Table 10, CY-treated mice, post-treatment per o.s. on day 1, 2, 3 and 4 with test substance 12.5 μM (CY line = CY alone)
[10] = Table 16, CY-treated mice, CY + test compound (CY line = CY alone), protocol of example 16
[11] = Table 17, CY-treated mice, CY + test compound (CY line = CY alone), protocol of example 16

CCCCCCCCCC(=O)O [capric acid]
effect on bone marrow cell count, post-treatment (bone marrow cells; CY-treated mice): weak increase in bone marrow cell count
effect on bone marrow cell count compared to cyclophosphamide treated mice (bone marrow cells; [1]): significantly enhances the bone marrow cell counts
Bone Marrow # Cells (×10^6) (bone marrow cells; [2]): 32 ± 2.71 ×10^6
Bone Marrow # Cells (×10^6) (bone marrow cells; [3]): 37 ± 7.8 ×10^6
Bone Marrow # Cells (×10^6) (bone marrow cells; [4]): 38 ± 4.6 ×10^6
Bone Marrow # Cells (×10^6) (bone marrow cells; [5]): 38 ± 7.4 ×10^6
effect on spleen cell count, post-treatment (spleen cells; CY-treated mice, post-treatment per o.s. on day 1, 2, 3 and 4): significant increase in spleen cell count
effect on spleen cell count compared to cyclophosphamide treated mice (spleen cells; [1]): No significant effect
Spleen # Cells (×10^6) (spleen cells; [2]): 27 ± 8.4 ×10^6
Spleen # Cells (×10^6) (spleen cells; [3]): 31 ± 8.7 ×10^6
Spleen # Cells (×10^6) (spleen cells; [4]): 25 ± 6.3 ×10^6
Spleen # Cells (×10^6) (spleen cells; [5]): 36 ± 7.8 ×10^6
Blood Immunophenotyping: effect compared to cyclophosphamide alone (words) (blood cell subsets): significantly increase the relative percentage of LY5-TCR- on blood
Blood Immunophenotyping: LY5−TCR− cell subset (relative percentage) (blood cell subsets; compound 6.25 μM): 61.52 ± 5.16
Blood Immunophenotyping: LY5−TCR− cell subset (relative percentage) (blood cell subsets; compound 12.5 μM): 70.79 ± 3.95
Spleen Immunophenotyping: effect compared to cyclophosphamide alone (words) (spleen cell subsets): no significant effect compared to cyclophosphamide alone
Spleen Immunophenotyping: effect compared to cyclophosphamide alone (words) (spleen cell subsets; listed as Capric acid): No significant effect

CCCCCCCCCC(=O)OCC(COC(=O)CCCCCCCCC)OC(=O)CCCCCCCCC [tricaprin]
effect on bone marrow cell count compared to cyclophosphamide treated mice (bone marrow cells; [1]): efficacious in the proliferation or protection of bone marrow cell counts
Bone Marrow # Cells (×10^6) (bone marrow cells; [6]): 31 ± 3.8 ×10^6
effect on spleen cell count compared to cyclophosphamide treated mice (spleen cells; [1]): No significant effect
Spleen # Cells (×10^6) (spleen cells; [6]): 38 ± 6.8 ×10^6

CCCCCC(=O)[O-].[Na+] [sodium caproate]
Bone Marrow # Cells (×10^6) (bone marrow cells; [7]): 39 ± 17.9 ×10^6
effect on bone marrow cell count compared to cyclophosphamide treated mice (bone marrow cells; mouse, in vivo): weak (not significant) activity
Spleen # Cells (×10^6) (spleen cells; [7]): 35 ± 10.6 ×10^6
effect on spleen cell count compared to cyclophosphamide treated mice (spleen cells; mouse, in vivo): weak (not significant) activity
Blood Immunophenotyping: effect compared to cyclophosphamide alone (words) (blood cell subsets): significantly increase the relative percentage of LY5-TCR- on blood
Blood Immunophenotyping: LY5−TCR− cell subset (relative percentage) (blood cell subsets; compound 6.25 μM): 52.43 ± 10.16

CCCCCCCCC(=O)O [nonanoic acid]
effect on bone marrow cell count compared to cyclophosphamide treated mice (bone marrow cells; [1]): weak (not significant) activity on immune cell counts
Bone Marrow # Cells (×10^6) (bone marrow cells; [8]): 36 ± 5.6 ×10^6
effect on spleen cell count compared to cyclophosphamide treated mice (spleen cells; [1]): weak (not significant) activity on immune cell counts
Spleen # Cells (×10^6) (spleen cells; [8]): 28 ± 4 ×10^6

CCCCCCCCCC(=O)[O-].[Na+] [sodium caprate]
effect on bone marrow cell count, post-treatment (bone marrow cells; CY-treated mice): significant increase in bone marrow cell count
effect on bone marrow cell count compared to cyclophosphamide treated mice (bone marrow cells; [1]): significant increase in proliferation or protection of bone marrow cell count
Bone Marrow # Cells (×10^6) (bone marrow cells; [9]): 29 ± 4.45 ×10^6
Spleen # Cells (×10^6) (spleen cells; [9]): 28 ± 6.3 ×10^6
Bone marrow immunophenotyping (bone marrow cell subsets): amplifies the number of CD13+ lineage
% Cells CD13+ (bone marrow) (bone marrow cell subsets): 4.7 ± 1.7%
% Cells CD34+ (bone marrow) (bone marrow cell subsets): 9.1 ± 3.1%
% Cells CD38+ (bone marrow) (bone marrow cell subsets): 44.3 ± 22.8%
% Cells CD41+ (bone marrow) (bone marrow cell subsets): 3.7 ± 0.7%

O=c1[nH]cc(F)c(=O)[nH]1 [5-FU, 5-fluorouracil, reference compound]
effect of cytotoxic drug on bone marrow cell count compared to the control (bone marrow cells; mouse, in vivo, iv): depressed the bone marrow cell count compared to the control
effect of cytotoxic drug on spleen cell count compared to the control (spleen cells; mouse, in vivo, iv): reduce significantly the spleen cell count compared to the control

CCCCCCCC(=O)O [caprylic acid]
Bone Marrow # Cells (×10^6) (bone marrow cells; [2]): 26 ± 3.58 ×10^6
effect on spleen cell count compared to cyclophosphamide treated mice (spleen cells; [1]): No significant effect
Spleen # Cells (×10^6) (spleen cells; [2]): 28 ± 6.4 ×10^6

CCCCCCCCCC(=O)NC(COC(=O)CCCCCCCCC)COC(=O)CCCCCCCCC [tridecanoyl serinol, 1,2,3-O,N,O-Tridecanoyl serinol]
effect on bone marrow cell count compared to cyclophosphamide treated mice (bone marrow cells; [1]): No significant effect
Bone Marrow # Cells (×10^6) (bone marrow cells; [10]): 28 ± 4.6 ×10^6
effect on spleen cell count compared to cyclophosphamide treated mice (spleen cells; [1]): significantly enhances the spleen cell counts
Spleen # Cells (×10^6) (spleen cells; [10]): 42 ± 8.4 ×10^6

CCCCCCCCCC(=O)OCC [ethyl caprate]
Bone Marrow # Cells (×10^6) (bone marrow cells; Table 18, CY-treated mice, CY + test compound (CY line = CY alone), protocol of example 16): 27.5 ± 4.4 ×10^6

CCCCCC(=O)OCC(COC(=O)CCCCC)OC(=O)CCCCC [tricaproin]
effect on bone marrow cell count compared to cyclophosphamide treated mice (bone marrow cells; [1]): weak (not significant) activity
Bone Marrow # Cells (×10^6) (bone marrow cells; [7]): 29 ± 4.1 ×10^6
effect on spleen cell count compared to cyclophosphamide treated mice (spleen cells; [1]): weak (not significant) activity
Spleen # Cells (×10^6) (spleen cells; [7]): 37 ± 8.7 ×10^6

CCCCCCCC(=O)[O-].[Na+] [sodium caprylate]
effect on bone marrow cell count, post-treatment (bone marrow cells; CY-treated mice): significant increase in bone marrow cell count
effect on bone marrow cell count compared to cyclophosphamide treated mice (bone marrow cells; [1]): significant increase in proliferation or protection of bone marrow cell count
Bone Marrow # Cells (×10^6) (bone marrow cells; [9]): 26 ± 5.33 ×10^6
Spleen # Cells (×10^6) (spleen cells; [9]): 36 ± 12.5 ×10^6
Bone marrow immunophenotyping (bone marrow cell subsets): amplifies the number of CD13+ lineage
% Cells CD13+ (bone marrow) (bone marrow cell subsets): 4.9 ± 1.2%
% Cells CD34+ (bone marrow) (bone marrow cell subsets): 11.2 ± 1.3%
% Cells CD38+ (bone marrow) (bone marrow cell subsets): 36 ± 9.7%
% Cells CD41+ (bone marrow) (bone marrow cell subsets): 4.6 ± 1.3%

CCCCCCCCCCCC(=O)O [lauric acid]
effect on bone marrow cell count compared to cyclophosphamide treated mice (bone marrow cells; [1]): Significant increases in proliferation or protection of bone marrow and spleen cell counts
Bone Marrow # Cells (×10^6) (bone marrow cells; [8]): 42 ± 7.8 ×10^6
effect on spleen cell count compared to cyclophosphamide treated mice (spleen cells; [1]): Significant increases in proliferation or protection of bone marrow and spleen cell counts
Spleen # Cells (×10^6) (spleen cells; [8]): 32 ± 5 ×10^6

CCCCCCCCCC(=O)OC1C(C)OC(OC)C(OC(=O)CCCCCCCCC)C1OC(=O)CCCCCCCCC [β-methyl tridecanoyl-L-fucopyranose, β-O-Methyl-2,3,4,—O,O,O-tridecanoyl-L-fucopyranose]
Bone Marrow # Cells (×10^6) (bone marrow cells; [11]): 34.6 ± 8.5 ×10^6
effect on bone marrow cell count compared to cyclophosphamide treated mice (bone marrow cells; mouse, in vivo): weak (not significant) activity on bone marrow cell counts

CCCCCCCCCC(=O)OC1C(C)OC(OC)C(OC(=O)CCCCCCCCC)C1OC(=O)CCCCCCCCC [α-methyl tridecanoyl-L-fucopyranose, α-O-Methyl-2,3,4,—O,O,O-tridecanoyl-L-fucopyranose]
Bone Marrow # Cells (×10^6) (bone marrow cells; [11]): 30.4 ± 9.3 ×10^6
effect on bone marrow cell count compared to cyclophosphamide treated mice (bone marrow cells; mouse, in vivo): lack of activity

From patent US8487001B2, “Medium-chain length fatty acids, glycerides and analogues as neutrophil survival and activation factors” (ProMetic BioSciences Inc., priority 2001, dated 2013)
